11 compounds from ChEMBL document CHEMBL1201862, “PubChem BioAssay data set” (2004) can be followed below.

Molecules are shown by their SMILES.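 A five-concentration, 48-hour dose response in 96-well plates underlies each endpoint, interpolated linearly between surrounding concentrations. Abbreviation: GI50, concentration required for 50% inhibition of growth.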 The source made the active and inactive calls. No stated cut-off is given here; in the data, active = GI50 up to about 1.1 µM and inactive = higher.

Test systems include Malme-3M; SK-MEL-5; MOLT-4; COLO 205; BT-549; SF-539; SF-295; HCT-15; NCI-H23; PC-3; ACHN; MCF7; SN12C; HOP-62; SNB-75; K562; EKVX; 786-0.
Holding throughout (experiment): DTP human tumour cell line panel, 48 h

For the compound `CN(C)CCNC(=O)c1cccc2[nH]c(-c3ccncc3)nc12`, the GI50 (as a rule, the concentration at which growth is held to half of that of the control) with Malme-3M was 1.91 µM (inactive); in the experiment on SK-MEL-5, 2.75 µM (inactive); in the experiment on MOLT-4, 3.56 µM (inactive); in the experiment on COLO 205, 1.6 µM (inactive); with BT-549, 11.4 µM (inactive); with SF-539, 2.65 µM (inactive). Also, the GI50 was 3.02 µM (inactive) in the experiment on SF-295; 2.89 µM in the experiment with HCT-15; 8.39 µM (inactive) with NCI-H23; 3.83 µM (inactive) in the experiment with PC-3; 6.53 µM (inactive) in the experiment with ACHN; 3.44 µM (inactive) with MCF7. The GI50 in the experiment with SN12C is 9.73 µM (inactive); in the experiment on HOP-62, 18.7 µM (inactive); with SNB-75, 7.33 µM (inactive); in the experiment with K562, 2.64 µM (inactive); in the experiment with EKVX, 12.4 µM (inactive); in the experiment on 786-0, 2.04 µM (inactive).
With `COc1cc(S(=O)(=O)Nc2ccc(-c3csc(N4C(=O)C(Cl)C4c4ccccc4)n3)cc2)ccc1Cl` (stereo not drawn), the GI50 with Malme-3M was 22.3 µM (inactive); with SK-MEL-5 it was 25.2 µM (inactive); in the experiment with MOLT-4, 27 µM (inactive); with COLO 205, 37.9 µM (inactive); in the experiment with BT-549 it was 26.9 µM (inactive); with SF-539 it was 32.7 µM (inactive). The GI50 with SF-295 was > 100 µM (inactive); in the experiment on HCT-15, over 100 µM; in the experiment with NCI-H23, 25.6 µM (inactive); with PC-3 it was > 100 µM (inactive); in the experiment on ACHN it was 60 µM (inactive); in the experiment on MCF7, 27.1 µM (inactive). In addition, the GI50 with SN12C is 24.9 µM (inactive); in the experiment on HOP-62, 69.2 µM (inactive); in the experiment with SNB-75, 22.8 µM (inactive); with K562, 32.2 µM (inactive); in the experiment on EKVX it was 31.9 µM (inactive); with 786-0 it was 19.2 µM (inactive).
As for `CCOc1ccccc1/C=C(/C#N)C(N)=O`, the GI50 in the experiment on Malme-3M was > 100 µM (inactive); in the experiment on SK-MEL-5 it was 78.3 µM (inactive); with MOLT-4, 83.9 µM (inactive); in the experiment on COLO 205, > 100 µM (inactive); in the experiment with BT-549, > 100 µM (inactive); in the experiment on SF-539, 70.6 µM (inactive). For the same compound, the GI50 with SF-295 is > 100 µM (inactive); in the experiment on HCT-15, 59 µM; with NCI-H23 it was > 100 µM (inactive); with PC-3, > 100 µM (inactive); in the experiment on ACHN, > 100 µM (inactive); in the experiment with MCF7 it was 41.7 µM (inactive). For the same compound, the GI50 in the experiment on SN12C was > 100 µM (inactive); in the experiment with HOP-62 it was > 100 µM (inactive); in the experiment on SNB-75, > 100 µM (inactive); in the experiment on K562 it was 36.2 µM (inactive); with EKVX it was > 100 µM (inactive); with 786-0, > 100 µM (inactive).
Consider `c1ccc(C2=NCCN2)c(C2=NCCN2)c1`, for which the GI50 in the experiment with Malme-3M, in the experiment with SK-MEL-5, with MOLT-4, with COLO 205, with BT-549 and in the experiment on SF-539 was > 100 µM (inactive) in each case. The GI50 was > 100 µM (inactive) in the experiment on SF-295; 44.1 µM with HCT-15; > 100 µM (inactive) in the experiment on NCI-H23; > 100 µM (inactive) with PC-3; > 100 µM (inactive) in the experiment with ACHN; > 100 µM (inactive) in the experiment on MCF7. In addition, the GI50 in the experiment with SN12C, in the experiment with HOP-62, with SNB-75, in the experiment with K562, in the experiment on EKVX and with 786-0 was > 100 µM (inactive) throughout.
`CC(O)C1CC1(CO)CNc1cc(Cl)nc(N)n1` (stereo not drawn): the GI50 in the experiment on Malme-3M, in the experiment with SK-MEL-5, with MOLT-4, with COLO 205, in the experiment on BT-549 and in the experiment on SF-539 was > 100 µM (inactive) throughout. For the same compound, the GI50 in the experiment on SF-295 was > 100 µM (inactive); with HCT-15 it was over 100 µM; with NCI-H23 it was > 100 µM (inactive); in the experiment on PC-3, > 100 µM (inactive); in the experiment with ACHN, > 100 µM (inactive); with MCF7, > 100 µM (inactive). The GI50 in the experiment with SN12C, in the experiment on HOP-62, in the experiment on SNB-75, in the experiment on K562, with EKVX and in the experiment on 786-0 was > 100 µM (inactive) throughout.
Regarding `C/C=N\n1c(C)c(C#N)c(C#N)c1N`, the GI50 in the experiment on Malme-3M, with SK-MEL-5, in the experiment on MOLT-4, in the experiment on COLO 205, in the experiment on BT-549 and with SF-539 was > 100 µM (inactive) each time. The GI50 was > 100 µM (inactive) in the experiment on SF-295; over 100 µM in the experiment on HCT-15; > 100 µM (inactive) with NCI-H23; > 100 µM (inactive) with PC-3; > 100 µM (inactive) with ACHN; > 100 µM (inactive) with MCF7. For the same compound, the GI50 in the experiment on SN12C, in the experiment with HOP-62, in the experiment with SNB-75, with K562, in the experiment on EKVX and with 786-0 was > 100 µM (inactive) in each case.
Take `O=S(=O)(CC(O)C(Cl)(Cl)Cl)NNc1ccccc1` (stereo not drawn): the GI50 in the experiment on Malme-3M is > 100 µM (inactive); in the experiment on SK-MEL-5, 74.1 µM (inactive); with MOLT-4, > 100 µM (inactive); in the experiment with COLO 205, 75 µM (inactive); in the experiment on BT-549 it was > 100 µM (inactive); in the experiment on SF-539, > 100 µM (inactive). The GI50 was 80.7 µM (inactive) in the experiment on SF-295; 72.1 µM in the experiment with HCT-15; > 100 µM (inactive) with NCI-H23; > 100 µM (inactive) in the experiment on PC-3; > 100 µM (inactive) in the experiment on ACHN; > 100 µM (inactive) in the experiment with MCF7. The GI50 in the experiment with SN12C was > 100 µM (inactive); in the experiment with HOP-62, > 100 µM (inactive); in the experiment on SNB-75 it was > 100 µM (inactive); with K562, 23 µM (inactive); with EKVX, > 100 µM (inactive); in the experiment with 786-0, > 100 µM (inactive).
As for `O=c1oc2cc(/N=C/c3ccccc3Cl)ccc2c2ccccc12`, the GI50 with Malme-3M, with SK-MEL-5, in the experiment with MOLT-4, with COLO 205, with BT-549 and in the experiment with SF-539 was > 100 µM (inactive) in each case. Moreover, the GI50 in the experiment on SF-295 is > 100 µM (inactive); with HCT-15, over 100 µM; in the experiment with NCI-H23, > 100 µM (inactive); with PC-3, 98.6 µM (inactive); in the experiment with ACHN, > 100 µM (inactive); in the experiment on MCF7 it was 14.2 µM (inactive). The GI50 in the experiment on SN12C is > 100 µM (inactive); in the experiment with HOP-62 it was > 100 µM (inactive); in the experiment with SNB-75 it was > 100 µM (inactive); in the experiment on K562, 45.9 µM (inactive); in the experiment on EKVX, 49.2 µM (inactive); with 786-0, > 100 µM (inactive).
As to `CC(C)=CCC/C(C)=C/CC/C(C)=C/CCN(C)CCO`, the GI50 in the experiment with Malme-3M is 3.54 µM (inactive); with SK-MEL-5, 1.89 µM (inactive); in the experiment on MOLT-4, 3.44 µM (inactive); in the experiment on COLO 205, 1.72 µM (inactive); with BT-549, 10.8 µM (inactive); in the experiment on SF-539, 4.25 µM (inactive). Further, the GI50 with SF-295 is 3.61 µM (inactive); in the experiment on HCT-15 it was 3.95 µM; with NCI-H23, 11.6 µM (inactive); with PC-3, 6.47 µM (inactive); in the experiment with ACHN, 10.8 µM (inactive); in the experiment with MCF7, 2.45 µM (inactive). The GI50 in the experiment on SN12C was 12.3 µM (inactive); in the experiment on HOP-62 it was 6.78 µM (inactive); in the experiment on SNB-75, 7.43 µM (inactive); with K562, 1.54 µM (inactive); with EKVX, 16.8 µM (inactive); in the experiment on 786-0, 2.11 µM (inactive).
With `C[C@]12CC[C@H](O)CC1=CC[C@@H]1[C@@H]2CC[C@]2(C)C(=N/N)/C(=N\O)C[C@@H]12`, the GI50 with Malme-3M was 27.1 µM (inactive); in the experiment on SK-MEL-5 it was > 100 µM (inactive); in the experiment on MOLT-4 it was 16.4 µM (inactive); in the experiment with COLO 205, 40 µM (inactive); in the experiment on BT-549, 32.8 µM (inactive); in the experiment with SF-539, > 100 µM (inactive). Further, the GI50 was 35.1 µM (inactive) in the experiment on SF-295; 3.94 µM in the experiment on HCT-15; > 100 µM (inactive) in the experiment on NCI-H23; > 100 µM (inactive) in the experiment with PC-3; > 100 µM (inactive) with ACHN; > 100 µM (inactive) in the experiment with MCF7. Moreover, the GI50 with SN12C is > 100 µM (inactive); in the experiment with HOP-62, 45.9 µM (inactive); in the experiment on SNB-75 it was 7.5 µM (inactive); in the experiment with K562, 14.5 µM (inactive); in the experiment on EKVX, 74.1 µM (inactive); with 786-0, 50.7 µM (inactive).
For `CC(=O)Oc1ccc(/C=C/C(=O)O[C@@H](C)[C@H](C)OC(=O)/C=C/c2ccc(OC(C)=O)c(OC(C)=O)c2)cc1OC(C)=O`, the GI50 was 22.9 µM (inactive) in the experiment on Malme-3M; 10.6 µM (inactive) in the experiment with SK-MEL-5; 2.22 µM (inactive) in the experiment on MOLT-4; 29.5 µM (inactive) in the experiment on COLO 205; 10 µM (inactive) in the experiment with BT-549; > 100 µM (inactive) with SF-539. Besides, the GI50 in the experiment on SF-295 was 11.2 µM (inactive); with HCT-15, 6.31 µM; in the experiment with NCI-H23, 6.5 µM (inactive); in the experiment on PC-3 it was 23.1 µM (inactive); in the experiment with ACHN it was 11.4 µM (inactive); in the experiment on MCF7, 20 µM (inactive). In addition, the GI50 was 19.6 µM (inactive) with SN12C; 7.45 µM (inactive) in the experiment on HOP-62; 20.1 µM (inactive) in the experiment on SNB-75; 3.99 µM (inactive) with K562; 22.9 µM (inactive) in the experiment on EKVX; 12.1 µM (inactive) with 786-0.
